From PubChem BioAssay (NCI)
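Method: 48-hour compound exposure of cells in 96-well plates, five concentrations, linear interpolation of endpoints. TGI: total growth inhibition.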

Key:
Assay in all cases: NCI anticancer screen, dose series, 48 h
SR leukemia = test system: SR leukemia
EKVX NSCLC = test system: EKVX NSCLC
SNB-75 CNS = test system: SNB-75 CNS
U251 CNS = test system: U251 CNS
SN12C renal = test system: SN12C renal
SK-MEL-5 melanoma = test system: SK-MEL-5 melanoma
BT-549 breast = test system: BT-549 breast
HL-60(TB) leukemia = test system: HL-60(TB) leukemia
NCI-H226 lung = test system: NCI-H226 lung
RXF 393 renal = test system: RXF 393 renal
OVCAR-8 ovarian = test system: OVCAR-8 ovarian
NCI/ADR-RES ovarian = test system: NCI/ADR-RES ovarian

Row | Structure (SMILES) | TGI (SR leukemia) [µM] | TGI (EKVX NSCLC) [µM] | TGI (SNB-75 CNS) [µM] | TGI (U251 CNS) [µM] | TGI (SN12C renal) [µM] | TGI (SK-MEL-5 melanoma) [µM] | TGI (BT-549 breast) [µM] | TGI (HL-60(TB) leukemia) [µM] | TGI (NCI-H226 lung) [µM] | TGI (RXF 393 renal) [µM] | TGI (OVCAR-8 ovarian) [µM] | TGI (NCI/ADR-RES ovarian) [µM]
1 | COc1ccc(NC(=S)N/N=C\c2ccc(NC(C)=O)cc2)cc1 | > 100 | > 100 | > 100 | > 100 | > 100 | > 100 | > 100 | > 100 |  |  |  | 
2 | NC1=NC2=c3ccccc3=C(c3cnccn3)C2(c2cnccn2)c2ccccc21 (stereo not drawn) | > 100 | > 100 | > 100 | > 100 | > 100 | > 100 |  | > 100 | > 100 | > 100 | > 100 | 
3 | CC(=O)OCC(C)C1=C(OC(C)=O)C(=O)C2(C)C/C=C(/C)CC/C=C(\C)CCC(OC(C)=O)C(C)CCC12 (stereo not drawn) | 40.3 |  | > 100 | 31.3 | 36.5 | 30.2 |  | 27.5 |  |  | 44.9 | 
4 | Oc1cc(O)c2ccc(-c3ccc(O)c(O)c3)[o+]c2c1 |  | > 100 | > 100 | > 100 | > 100 |  | > 100 | > 100 | > 100 | > 100 | > 100 | > 100
5 | NC(=O)C(=O)c1ncn(Cc2ccccc2)c1N | > 100 | > 100 | > 100 | > 100 | > 100 | > 100 |  | > 100 | > 100 | > 100 | > 100 | > 100
6 | CCCCCCCCOCC(O)COC(C)C (stereo not drawn) | 40.2 |  |  | > 100 | 73.1 | > 100 |  | 31.7 | > 100 |  | > 100 | 
7 | COc1cc2nc(Nc3cccc(Br)c3)nc(Nc3cccc(Br)c3)c2cc1OC |  | 39.8 | 31.8 | 35.7 | 31.4 | 30.7 | 30.7 |  |  | 33.7 | 31.6 | 37.5
8 | COc1ccccc1C1C(Cl)C(=O)N1n1cnc2ccccc2c1=O (stereo not drawn) | > 100 | > 100 | > 100 | > 100 | > 100 | > 100 |  | > 100 | > 100 | > 100 | > 100 | 
9 | N#CC(N)c1ccc(OCCCCCCCCCCOc2ccc(C(N)C#N)cc2)cc1 (stereo not drawn) |  | > 100 |  | > 100 | > 100 | > 100 | > 100 | > 100 | > 100 | > 100 | > 100 | > 100
10 | O=C(NC(Cl)(C(F)(F)F)C(F)(F)F)c1ccc(F)cc1 | > 100 | > 100 | 91.6 | > 100 | > 100 | > 100 |  | > 100 | > 100 | > 100 | > 100 | > 100
11 | Oc1ccc([Te]CCNCC[Te]c2ccc(O)cc2)cc1 | > 100 | 19 | 70.8 | 25.6 | > 100 | 26.4 |  | 38.5 | 46.4 |  | 48 | 
12 | CC1(C)CC(O)C2=C(O1)C(=O)c1ncccc1C2=O (stereo not drawn) | > 19.8 | 6.76 | 2.1 | 3.21 | 3.68 | 3.1 | 3.18 | 4.15 | 3.74 | 12.3 | 9.34 | 
13 | Clc1c(Cl)c(Cl)c2c(nnn2C2CCCO2)c1Cl (stereo not drawn) | 91.4 | 73.4 | 40.3 | > 100 | > 100 | > 100 |  | 38.5 | > 100 | > 100 | > 100 | > 100
14 | Nc1ccccc1Nc1ccccc1C(=O)[O-].Nc1ccccc1Nc1ccccc1C(=O)[O-].[Zn+2] |  | > 100 | 49.1 | > 100 | > 100 | > 100 |  |  |  |  | > 100 | 
15 | CCOP(=O)(OCC)C(C)(C)N(C)/C(F)=N/C(F)(F)F | > 100 | > 100 | > 100 | > 100 | > 100 | > 100 |  | > 100 | > 100 |  | > 100 | > 100
16 | Clc1ccc(Nc2nnc(CCCCCCCCc3nnc(Nc4ccc(Cl)cc4)o3)o2)cc1 |  | > 100 | > 100 | > 100 | > 100 | 64.2 | > 100 |  | > 100 |  |  | > 100
17 | COc1ccc(N=C2S/C(=N\C(=Nc3ccccc3)SCc3ccccc3)N(c3ccccc3)C2=Nc2ccc(OC)cc2)cc1 | > 100 | > 100 | > 100 |  | > 100 | > 100 | > 100 | > 100 | > 100 | > 100 | > 100 | 
